Common to all, as to type: biochemical
The target of assay [1] is T1, PPK2^s.e (Staphylococcus epidermidis, UniProt Q5HL47).
T1 construct: gene SERP2140
T1 sequence (Q5HL47 1-474): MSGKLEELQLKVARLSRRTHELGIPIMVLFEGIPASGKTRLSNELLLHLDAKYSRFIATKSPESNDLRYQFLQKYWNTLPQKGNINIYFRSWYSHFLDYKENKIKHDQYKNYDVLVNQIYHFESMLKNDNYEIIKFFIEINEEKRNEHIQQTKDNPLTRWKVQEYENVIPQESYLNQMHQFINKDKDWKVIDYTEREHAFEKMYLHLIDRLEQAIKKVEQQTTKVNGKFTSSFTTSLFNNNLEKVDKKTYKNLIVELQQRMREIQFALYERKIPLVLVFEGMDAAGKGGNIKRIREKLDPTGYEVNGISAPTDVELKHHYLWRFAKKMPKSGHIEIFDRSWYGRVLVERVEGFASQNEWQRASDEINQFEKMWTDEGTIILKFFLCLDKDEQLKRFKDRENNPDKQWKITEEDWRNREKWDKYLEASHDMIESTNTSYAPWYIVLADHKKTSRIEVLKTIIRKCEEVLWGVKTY
In words: polyphosphate kinase assay, HPLC. Particulars: polyP6, Mg2+, pH 7.5, 35 °C.

Assay [2] has as its target T2, PPK2^r.p (Ruegeria pomeroyi, UniProt Q5LX16).
T2 construct: gene SPO0224
T2 sequence (Q5LX16 1-305): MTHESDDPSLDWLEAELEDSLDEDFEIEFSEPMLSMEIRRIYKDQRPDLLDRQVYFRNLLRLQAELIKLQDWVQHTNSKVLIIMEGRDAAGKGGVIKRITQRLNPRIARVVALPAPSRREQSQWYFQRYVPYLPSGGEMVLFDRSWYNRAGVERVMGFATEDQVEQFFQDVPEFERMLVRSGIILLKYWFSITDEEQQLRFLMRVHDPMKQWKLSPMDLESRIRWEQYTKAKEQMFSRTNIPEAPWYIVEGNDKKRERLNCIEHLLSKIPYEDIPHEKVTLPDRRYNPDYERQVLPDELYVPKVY
Nature of the assay: polyphosphate kinase assay, HPLC. Particulars: polyP6, Mg2+, pH 7.5, 35 °C.

Assay [3] has as its target T3, PPK2^d.r (Meiothermus ruber, UniProt M9XB82).
T3 construct: gene K649_10090
T3 sequence (M9XB82 1-267): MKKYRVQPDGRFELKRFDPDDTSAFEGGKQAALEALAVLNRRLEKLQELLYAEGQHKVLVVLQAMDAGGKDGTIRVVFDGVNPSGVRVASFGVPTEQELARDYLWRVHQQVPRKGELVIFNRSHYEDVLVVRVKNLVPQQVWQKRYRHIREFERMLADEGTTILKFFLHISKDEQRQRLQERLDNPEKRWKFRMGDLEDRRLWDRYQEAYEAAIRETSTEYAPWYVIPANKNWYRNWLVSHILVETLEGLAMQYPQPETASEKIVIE
Nature of the assay: polyphosphate kinase assay, HPLC. Particulars: polyP6, Mg2+, pH 7.5, 35 °C.

Assay [4] addresses T4, PPK2A^p.a (Pseudomonas aeruginosa, UniProt Q9I6Z1).
T4 construct: gene ppk2
T4 sequence (Q9I6Z1 2-357): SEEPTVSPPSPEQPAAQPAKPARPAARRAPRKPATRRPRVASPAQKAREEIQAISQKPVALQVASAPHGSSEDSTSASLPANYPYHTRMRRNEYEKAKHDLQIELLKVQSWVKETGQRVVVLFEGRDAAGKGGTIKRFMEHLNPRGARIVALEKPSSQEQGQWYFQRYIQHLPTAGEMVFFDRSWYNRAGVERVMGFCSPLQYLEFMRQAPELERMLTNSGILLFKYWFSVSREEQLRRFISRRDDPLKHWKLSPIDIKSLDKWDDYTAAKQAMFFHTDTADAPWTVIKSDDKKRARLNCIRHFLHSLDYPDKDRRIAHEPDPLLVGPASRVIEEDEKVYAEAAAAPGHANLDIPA
Nature of the assay: polyphosphate kinase assay, HPLC. Particulars: polyP6, Mg2+, pH 7.5, 35 °C.

The target in assay [5] is T5, PPK2B^p.a (Pseudomonas aeruginosa, UniProt Q9I154).
T5 construct: gene PA2428
T5 sequence (Q9I154 1-304): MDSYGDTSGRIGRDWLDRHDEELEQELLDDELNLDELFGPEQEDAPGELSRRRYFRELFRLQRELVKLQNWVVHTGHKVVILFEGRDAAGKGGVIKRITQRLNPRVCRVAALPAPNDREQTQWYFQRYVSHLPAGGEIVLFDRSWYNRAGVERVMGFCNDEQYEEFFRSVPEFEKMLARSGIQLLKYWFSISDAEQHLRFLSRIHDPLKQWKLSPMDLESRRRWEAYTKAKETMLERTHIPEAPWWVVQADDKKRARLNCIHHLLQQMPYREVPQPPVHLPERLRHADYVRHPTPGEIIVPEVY
Nature of the assay: polyphosphate kinase assay, HPLC. Particulars: polyP6, Mg2+, pH 7.5, 35 °C.

The target in assay [6] is T6, PPK2C^p.a (Pseudomonas aeruginosa, UniProt Q9HYF1).
T6 construct: gene PA3455
T6 sequence (Q9HYF1 1-496): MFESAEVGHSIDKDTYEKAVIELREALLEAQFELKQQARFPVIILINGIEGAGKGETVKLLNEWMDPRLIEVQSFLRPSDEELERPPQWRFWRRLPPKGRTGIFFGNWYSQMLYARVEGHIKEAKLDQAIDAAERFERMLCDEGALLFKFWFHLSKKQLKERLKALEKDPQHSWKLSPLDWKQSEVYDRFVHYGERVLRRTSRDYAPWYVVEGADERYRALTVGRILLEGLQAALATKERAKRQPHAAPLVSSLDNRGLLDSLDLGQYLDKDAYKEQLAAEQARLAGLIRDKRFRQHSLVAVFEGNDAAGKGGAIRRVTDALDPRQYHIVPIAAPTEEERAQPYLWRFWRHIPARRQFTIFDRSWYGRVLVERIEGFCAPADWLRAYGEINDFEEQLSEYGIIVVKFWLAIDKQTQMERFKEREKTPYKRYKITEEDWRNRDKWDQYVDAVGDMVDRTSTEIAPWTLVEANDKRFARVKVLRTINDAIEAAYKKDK
Nature of the assay: polyphosphate kinase assay, HPLC. Particulars: polyP6, Mg2+, pH 7.5, 35 °C.

Assay [7] deals with T7, chondroitin 4-O-sulfotransferase (C4ST).
T7 construct: gene Chst11; recombinant
In words: sulfotransferase kinetics, HPLC-MS. Particulars: Mg2+, pH 7.5, 35 °C (general assay); acceptor not given. The text has this: sulfotransferase kinetics, HPLC-MS on chondroitin 4-O-sulfotransferase (C4ST)

As for `Nc1ncnc2c1ncn2[C@@H]1O[C@H](COP(=O)(O)OP(=O)(O)O)[C@@H](O)[C@H]1O` [ADP], the “polyphosphate kinase assay, HPLC” value in assay [1] is “all the other polyphosphate kinases exhibited both AMP and ADP phosphorylase activities”.
On to `Nc1ncnc2c1ncn2[C@@H]1O[C@H](COP(=O)(O)O)[C@@H](O)[C@H]1O` [AMP], for which the “polyphosphate kinase assay, HPLC” value is “all the other polyphosphate kinases exhibited both AMP and ADP phosphorylase activities” in assay [2]; “all the other polyphosphate kinases exhibited both AMP and ADP phosphorylase activities” in assay [3]; “all the other polyphosphate kinases exhibited both AMP and ADP phosphorylase activities” in assay [4]; “PPK2^s.e (from S. epidermidis) showed the highest enzymatic activity and preferentially utilized AMP” in assay [1]; “all the other polyphosphate kinases exhibited both AMP and ADP phosphorylase activities” in assay [5]; “all the other polyphosphate kinases exhibited both AMP and ADP phosphorylase activities” in assay [6].
Consider `Nc1ncnc2c1ncn2[C@@H]1O[C@H](COP(=O)(O)OS(=O)(=O)O)[C@@H](OP(=O)(O)O)[C@H]1O` [PAPS], for which the Km in assay [7] was 1270 ± 140 µM.
